Experimental data published in ChEMBL document CHEMBL5257125, “Discovery of pyrido[4,3-d]pyrimidinone derivatives as novel Wee1 inhibitors” (Bioorg Med Chem, 2023).

Tests used:
MV4-11 [1] = assay: Induction of apoptosis in human MV4-11 cells assessed as early apoptotic cells at 1600 nM after 48 hrs by Annexin V FITC/PI staining based flow cytometry analysis (reference value: 9.33%); type: functional
Wee1-like protein kinase [2] = target: T1, Wee1-like protein kinase (Homo sapiens, UniProt P30291); assay: Inhibition of Wee1 in human MV4-11 cells assessed as reduction in phosphorylation of CDK1-Y15 incubated for 24 hrs by Western blot analysis; type: cell-based; conditions: dose 0.01-5 µM
Target sequence in this assay (P30291 whole entry, looked up): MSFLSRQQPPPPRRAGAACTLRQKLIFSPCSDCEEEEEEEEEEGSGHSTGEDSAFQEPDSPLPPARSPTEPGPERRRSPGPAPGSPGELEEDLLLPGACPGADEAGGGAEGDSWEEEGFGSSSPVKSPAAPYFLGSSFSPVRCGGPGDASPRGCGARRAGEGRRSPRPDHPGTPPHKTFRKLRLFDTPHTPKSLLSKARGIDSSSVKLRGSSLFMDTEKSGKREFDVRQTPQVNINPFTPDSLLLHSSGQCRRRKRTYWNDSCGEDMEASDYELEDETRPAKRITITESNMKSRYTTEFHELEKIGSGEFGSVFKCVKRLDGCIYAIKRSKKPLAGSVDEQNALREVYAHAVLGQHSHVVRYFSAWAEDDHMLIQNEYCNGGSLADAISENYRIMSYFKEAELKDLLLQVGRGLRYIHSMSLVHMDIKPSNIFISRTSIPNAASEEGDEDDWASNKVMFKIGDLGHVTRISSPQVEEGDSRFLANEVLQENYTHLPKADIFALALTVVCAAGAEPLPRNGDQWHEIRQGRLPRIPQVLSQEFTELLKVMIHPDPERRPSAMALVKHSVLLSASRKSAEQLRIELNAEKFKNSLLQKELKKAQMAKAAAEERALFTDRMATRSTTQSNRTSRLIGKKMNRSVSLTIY

MV4-11 [3] = assay: Induction of apoptosis in human MV4-11 cells assessed as necrotic cells at 3200 nM after 48 hrs by Annexin V FITC/PI staining based flow cytometry analysis (reference value: 0.00968%); type: functional
Wee1-like protein kinase [4] = target: T1, Wee1-like protein kinase; assay: Inhibition of recombinant human Wee1 (214 to end residues) incubated for 1 hr in presence of tracer 178 by fluorescence based assay
Target sequence in this assay (P30291 whole entry): as the sequence (P30291 whole entry, looked up) above

MV4-11 [5] = assay: Induction of apoptosis in human MV4-11 cells assessed as early apoptotic cells at 3200 nM after 48 hrs by Annexin V FITC/PI staining based flow cytometry analysis (reference value: 9.33%); type: functional
MV4-11 [6] = assay: Induction of apoptosis in human MV4-11 cells assessed as viable cells at 200 nM after 48 hrs by Annexin V FITC/PI staining based flow cytometry analysis (reference value: 86.6%); type: functional; conditions: read-out: Activity
MV4-11 [7] = assay: Induction of apoptosis in human MV4-11 cells assessed as early apoptotic cells at 400 nM after 48 hrs by Annexin V FITC/PI staining based flow cytometry analysis (reference value: 9.33%); type: functional
MV4-11 [8] = assay: Induction of apoptosis in human MV4-11 cells assessed as late apoptotic cells at 200 nM after 48 hrs by Annexin V FITC/PI staining based flow cytometry analysis (reference value: 4.07%); type: functional
MV4-11 [9] = assay: Induction of apoptosis in human MV4-11 cells assessed as necrotic cells at 800 nM after 48 hrs by Annexin V FITC/PI staining based flow cytometry analysis (reference value: 0.00968%); type: functional
MV4-11 [10] = assay: Induction of apoptosis in human MV4-11 cells assessed as late apoptotic cells at 1600 nM after 48 hrs by Annexin V FITC/PI staining based flow cytometry analysis (reference value: 4.07%); type: functional
MV4-11 [11] = assay: Induction of apoptosis in human MV4-11 cells assessed as viable cells at 1600 nM after 48 hrs by Annexin V FITC/PI staining based flow cytometry analysis (reference value: 86.6%); type: functional; conditions: read-out: Activity
MV4-11 [12] = assay: Induction of apoptosis in human MV4-11 cells assessed as viable cells at 3200 nM after 48 hrs by Annexin V FITC/PI staining based flow cytometry analysis (reference value: 86.6%); type: functional; conditions: read-out: Activity
MV4-11 [13] = assay: Induction of apoptosis in human MV4-11 cells assessed as early apoptotic cells at 800 nM after 48 hrs by Annexin V FITC/PI staining based flow cytometry analysis (reference value: 9.33%); type: functional
MV4-11 [14] = assay: Induction of apoptosis in human MV4-11 cells assessed as necrotic cells at 200 nM after 48 hrs by Annexin V FITC/PI staining based flow cytometry analysis (reference value: 0.00968%); type: functional
MV4-11 [15] = assay: Induction of apoptosis in human MV4-11 cells assessed as viable cells at 400 nM after 48 hrs by Annexin V FITC/PI staining based flow cytometry analysis (reference value: 86.6%); type: functional; conditions: read-out: Activity
MV4-11 [16] = assay: Induction of apoptosis in human MV4-11 cells assessed as necrotic cells at 400 nM after 48 hrs by Annexin V FITC/PI staining based flow cytometry analysis (reference value: 0.00968%); type: functional
MV4-11 [17] = assay: Induction of apoptosis in human MV4-11 cells assessed as early apoptotic cells at 200 nM after 48 hrs by Annexin V FITC/PI staining based flow cytometry analysis (reference value: 9.33%); type: functional
MV4-11 [18] = assay: Induction of apoptosis in human MV4-11 cells assessed as late apoptotic cells at 3200 nM after 48 hrs by Annexin V FITC/PI staining based flow cytometry analysis (reference value: 4.07%); type: functional
MV4-11 [19] = assay: Antiproliferative activity against human MV4-11 cells incubated for 72 hrs by Celltiter-glo assay; type: functional, cell-based; conditions: MV4-11, 72 h
T47D = assay: Antiproliferative activity against human T47D cells incubated for 72 hrs by Celltiter-glo assay; type: functional, cell-based
MV4-11 [20] = assay: Induction of apoptosis in human MV4-11 cells assessed as late apoptotic cells at 400 nM after 48 hrs by Annexin V FITC/PI staining based flow cytometry analysis (reference value: 4.07%); type: functional
MV4-11 [21] = assay: Induction of apoptosis in human MV4-11 cells assessed as late apoptotic cells at 800 nM after 48 hrs by Annexin V FITC/PI staining based flow cytometry analysis (reference value: 4.07%); type: functional
MV4-11 [22] = assay: Induction of apoptosis in human MV4-11 cells assessed as necrotic cells at 1600 nM after 48 hrs by Annexin V FITC/PI staining based flow cytometry analysis (reference value: 0.00968%); type: functional
MV4-11 [23] = assay: Induction of apoptosis in human MV4-11 cells assessed as viable cells at 800 nM after 48 hrs by Annexin V FITC/PI staining based flow cytometry analysis (reference value: 86.6%); type: functional; conditions: read-out: Activity
MV4-11 [24] = assay: Induction of cell cycle arrest in human MV4-11 cells assessed as accumulation of cells at G0/G1 phase at 800 nM incubated for 24 hrs by flow cytometry analysis; type: functional
MV4-11 [25] = assay: Induction of DNA damage in human MV4-11 cells assessed as increase in gamma-H2AX expression incubated for 24 hrs by Western blot analysis; type: functional, cell-based; conditions: dose 0.05-0.2 µM
[26] = Metabolic stability in mouse liver microsomes assessed as parent compound remaining preincubated with NADPH for 5 mins followed by compound addition and measured upto 90 mins by LC-MS/MS analysis; type: ADME, Microsome; conditions: read-out: Stability

With CC(=O)Nc1cc(Nc2cc3ncn(-c4c(Cl)cccc4Cl)c(=O)c3cn2)ccc1N1C[C@@H](C)N[C@@H](C)C1 the Activity (MV4-11 [1]) was 12.4%, the inhibition (Wee1-like protein kinase [2]) was “Dose-Dependent Effect” and the Activity (MV4-11 [3]) was 0.01%. The IC50 (Wee1-like protein kinase [4]) was 21 nM, the Activity (MV4-11 [5]) was 21.3% and the viability at 0.2 µM (MV4-11 [6]) was 84.7%. For the same molecule, the Activity (MV4-11 [7]) was 10.4%, the Activity (MV4-11 [8]) was 3.34% and the Activity (MV4-11 [9]) was 0.029%. For the same molecule, the Activity (MV4-11 [10]) was 5.11%, the viability at 1.6 µM (MV4-11 [11]) was 82.4% and the viability at 3.2 µM (MV4-11 [12]) was 66.7%. For the same molecule, the Activity (MV4-11 [13]) was 12.2%, the Activity (MV4-11 [14]) was 0.00954% and the viability at 0.4 µM (MV4-11 [15]) was 84.5%. It also gave an Activity (MV4-11 [16]) of 0.02%, an Activity (MV4-11 [17]) of 12% and an Activity (MV4-11 [18]) of 12%. It also gave an IC50 (MV4-11 [19]) of 763 nM, an IC50 (T47D) of 4640 nM and an Activity (MV4-11 [20]) of 5.09%. For the same molecule, the Activity (MV4-11 [21]) was 0.12%, the Activity (MV4-11 [22]) was 0.048% and the viability at 0.8 µM (MV4-11 [23]) was 81.7%. The Activity (MV4-11 [24]) was 63%, the Activity (MV4-11 [25]) was “Dose-Dependent Effect” and the remaining at 1.5 h [26] was 60%.
